Data: patent publication US20030120073A1, “Alpha-ketocarboxylic acid based inhibitors of phosphoryl tyrosine phosphatases” (priority 2001, published 2003)
Where two headings read alike, the source gives them in different places.

Experiments:
Yersinia PTPase = molecular target: T1, Yersinia PTPase (Yersinia enterocolitica, UniProt P15273); assay: biochemical; assay type: biochemical
T1 construct: purchased Calbiochem

PTP1B [1] = molecular target: T2, PTP1B (Homo sapiens, UniProt P18031); assay: PTP1B assay (p-NPP hydrolysis, UV at 420 nm); assay type: biochemical; details: 100 mM acetate pH 5.5, 10% DMSO; read-out: Km of substrate, PTP1B
T2 construct: purchased Calbiochem
T2 sequence (P18031 1-435): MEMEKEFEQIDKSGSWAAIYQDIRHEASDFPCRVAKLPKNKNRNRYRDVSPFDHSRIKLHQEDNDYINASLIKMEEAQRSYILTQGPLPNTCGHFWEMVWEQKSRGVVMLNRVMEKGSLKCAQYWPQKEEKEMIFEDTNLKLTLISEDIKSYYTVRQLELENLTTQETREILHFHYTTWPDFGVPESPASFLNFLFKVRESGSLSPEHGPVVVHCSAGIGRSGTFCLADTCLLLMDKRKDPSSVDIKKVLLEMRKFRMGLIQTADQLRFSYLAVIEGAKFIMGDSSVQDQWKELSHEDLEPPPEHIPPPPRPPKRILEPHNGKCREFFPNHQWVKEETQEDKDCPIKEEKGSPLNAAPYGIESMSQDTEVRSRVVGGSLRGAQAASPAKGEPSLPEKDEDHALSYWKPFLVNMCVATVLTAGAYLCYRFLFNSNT
Method: PTP1B Assay: PTP1B (purchased from Calbiochem) was assayed usingp-NPP as the substrate and the reaction progress was monitored by UV spectroscopy. Initial rates were determined by monitoring the hydrolysis of p-NPP at 420 nm, from 10 to 120 s after mixing. Assay solutions contained 1.2 mM substrate, 1 mM EDTA, 100 mM NaCl, and 100 mM acetate at pH 5.5, and 10% DMSO. IC50 values were calculated using a Dixon analysis. Data analysis was performed with the commercial graphing package Grafit (Erithacus Software Ltd.).

LAR PTPase = molecular target: T3, LAR PTPase (Homo sapiens, UniProt P10586); assay: LAR PTPase assay (p-NPP hydrolysis, UV at 420 nm); assay type: biochemical; details: 100 mM acetate pH 5.5, 10% DMSO; read-out: Km of substrate, LAR
T3 construct: purchased Calbiochem
T3 sequence (P10586 1301-1639 limits assumed): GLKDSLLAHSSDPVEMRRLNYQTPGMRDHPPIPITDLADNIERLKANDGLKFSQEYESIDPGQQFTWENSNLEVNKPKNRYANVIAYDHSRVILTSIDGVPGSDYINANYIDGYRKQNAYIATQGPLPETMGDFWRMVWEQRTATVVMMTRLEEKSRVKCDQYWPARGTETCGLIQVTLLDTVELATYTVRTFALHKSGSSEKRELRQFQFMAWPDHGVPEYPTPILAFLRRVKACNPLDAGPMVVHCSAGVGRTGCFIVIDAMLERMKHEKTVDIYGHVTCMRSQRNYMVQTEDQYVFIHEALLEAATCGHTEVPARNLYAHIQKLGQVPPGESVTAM

PTP1B [2] = molecular target: T2, PTP1B; details: absence of DMSO, acetate buffer pH 5.5; reference 1; read-out: Km of substrate, PTP1B (reported); cited from earlier work

T1 sequence (P15273 whole entry): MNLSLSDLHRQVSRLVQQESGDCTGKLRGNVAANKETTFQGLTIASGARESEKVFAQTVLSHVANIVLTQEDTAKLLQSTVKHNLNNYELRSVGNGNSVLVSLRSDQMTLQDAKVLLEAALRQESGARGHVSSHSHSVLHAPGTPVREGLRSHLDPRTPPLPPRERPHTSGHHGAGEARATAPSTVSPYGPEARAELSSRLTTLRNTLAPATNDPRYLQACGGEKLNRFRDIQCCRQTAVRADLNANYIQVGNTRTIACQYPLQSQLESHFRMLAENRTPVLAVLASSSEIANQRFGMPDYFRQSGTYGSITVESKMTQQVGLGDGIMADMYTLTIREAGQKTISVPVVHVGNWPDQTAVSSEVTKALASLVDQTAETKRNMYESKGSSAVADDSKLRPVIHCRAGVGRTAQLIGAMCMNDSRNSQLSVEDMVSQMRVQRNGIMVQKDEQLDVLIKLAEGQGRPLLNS

O=C(O)C(=O)c1ccco1 [Compound 11]
Ki (Yersinia PTPase): 79 µM

O=C(O)C(=O)c1ccccc1 [Compound 1]
IC50 (Yersinia PTPase): 2700 µM

O=C(O)C(=O)c1c[nH]c2ccccc12 [Compound 8]
IC50 (Yersinia PTPase): 390 µM

O=C(O)C(=O)c1ccc(O)cc1 [Compound 27]
IC50 (Yersinia PTPase): 200 ± 20 µM

COc1ccc(C(=O)C(=O)O)cc1 [Compound 10]
IC50 (Yersinia PTPase): 150 µM

O=[N+]([O-])c1ccc(OP(=O)(O)O)cc1 [p-NPP]
Km (Yersinia PTPase; pH 5.5, read-out: Km of substrate, Yersinia PTPase): 2500 µM | Km (PTP1B [1]): 620 µM | Km (LAR PTPase): 2100 µM | Km (PTP1B [2]): 750 µM
